Reference: patent US10221163B2 (priority 2015, dated 2019)
Where two headings read alike, the source gives them in different places.

What was measured:
[1] = molecular target: IMP-1 (Serratia marcescens, UniProt P52699); test: biochemical; type: biochemical; conditions: fluorescence assay, CCF2-FA substrate, 2 pM enzyme, 2 hours at 25° C.; read-out: IMP-1 IC50
How it was run: (§1)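 Fluorescence assay of metallo-β-lactamase activity using CCF2-FA, a cephalosporin-linked 7-hydroxycoumarin–fluorescein substrate. Inhibitor, enzyme and substrate were incubated together for 2 hours at 25° C. IC50 came from a 4-parameter fit of inhibition versus inhibitor concentration.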

[2] = molecular target: NDM-1 (Klebsiella pneumoniae, UniProt C7C422); test: biochemical; type: biochemical; conditions: fluorescence assay, CCF2-FA substrate, 1 pM enzyme, 2 hours at 25° C.; read-out: NDM-1 IC50
Chain of NDM-1 (C7C422 whole entry, looked up, species assumed): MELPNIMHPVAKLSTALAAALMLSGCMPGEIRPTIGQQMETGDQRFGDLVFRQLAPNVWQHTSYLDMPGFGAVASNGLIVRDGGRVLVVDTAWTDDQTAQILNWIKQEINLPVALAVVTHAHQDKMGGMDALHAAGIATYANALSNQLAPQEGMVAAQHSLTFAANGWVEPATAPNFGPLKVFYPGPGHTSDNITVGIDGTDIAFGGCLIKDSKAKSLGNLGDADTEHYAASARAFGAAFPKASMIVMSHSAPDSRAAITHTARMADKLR
How it was run: as §1

[3] = molecular target: VIM-1 (Pseudomonas aeruginosa (strain ATCC 15692 / DSM 22644 / CIP 104116 / JCM 14847 / LMG 12228 / 1C / PRS 101 / PAO1), UniProt A0A0F7KYQ8); test: biochemical; conditions: CCF2-FA substrate, 30 pM enzyme, 2 hours at 25° C.
How it was run: as §1

[4] = test system: Escherichia coli expressing NDM-1 (CLB30005, CLB30016); type: cell-based; conditions: with imipenem 1 μg/ml; for Escherichia coli MITC95: NDM-1 strain, 95% inhibition of growth; for Escherichia coli expressing NDM-1 (CLB30016) MITC95: 95% inhibition of bacterial growth
How it was run: (§2)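 Growth by absorbance after 22–24 h at 35°C defined the read-out, with imipenem fixed at 1 μg/ml alongside compound. Inocula came from overnight blood-agar colonies at 35°C, resuspended in saline and diluted 1:100 in 1.1×CAMHB.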

[5] = test system: Klebsiella pneumoniae expressing VIM-1 (IHMA599644); type: cell-based; conditions: for Klebsiella pneumoniae MITC95: VIM-1 strain IHMA599644, with imipenem 1 μg/ml, 95% inhibition of growth; for Klebsiella pneumoniae expressing VIM-1 (IHMA599644) MITC95: with imipenem 1 μg/ml, 95% inhibition of bacterial growth
How it was run: as §2

[6] = test system: Serratia marcescens expressing IMP-1 (CL5741); type: cell-based; conditions: for Serratia marcescens MITC95: IMP-1 strain CL5741, with imipenem 1 μg/ml, 95% inhibition of growth; for Serratia marcescens expressing IMP-1 (CL5741) MITC95: with imipenem 1 μg/ml, 95% inhibition of bacterial growth
How it was run: as §2

[7] = test system: Pseudomonas aeruginosa efflux+ (MB9798), IMP-1; type: cell-based; set-up: Concentration of metallo-β-lactamase inhibitor which restores susceptibility of efflux + (MB9798) strain to imipenem: unit not given here; conditions: C, D serine β-lactamase inhibitor closely related to relebactam; for P. aeruginosa expressing IMP-1, efflux + (MB9798) MITC95: concentration restoring susceptibility to imipenem at 2 μg/mL in the presence of a class A; for Concentration of metallo-β-lactamase inhibitor which restores susceptibility of efflux + (MB9798) strain to imipenem: imipenem at 2 μg/mL, in the presence of a class A
How it was run: (§3)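 Microbroth MIC tests in PAO1-background strains with fixed imipenem and/or ceftazidime, usually at the CLSI breakpoint, plus fixed class A/C β-lactamase inhibitor against AmpC. MBL inhibitor titrated; concentration restoring susceptibility recorded and compared as fold difference between efflux+ MB9798 and efflux− MB9799.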

[8] = test system: Pseudomonas aeruginosa efflux− (MB9799), IMP-1; type: cell-based; conditions: C, D serine β-lactamase inhibitor closely related to relebactam; for P. aeruginosa expressing IMP-1, efflux − (MB9799) MITC95: concentration restoring susceptibility to imipenem at 2 μg/mL in the presence of a class A; for Concentration of metallo-β-lactamase inhibitor which restores susceptibility of efflux − (MB9799) strain to imipenem: imipenem at 2 μg/mL, in the presence of a class A
How it was run: as §3

[9] = test system: Pseudomonas aeruginosa MB9798 vs MB9799
How it was run: as §3

[10] = fluorescence assay, read-out: VIM-1 IC50
[11] = ratio MITC95 PA_9798/MITC95 PA_9799
[12] = fold difference between efflux+ (MB9798) and efflux− (MB9799) strains, imipenem at 2 μg/mL

Chain of IMP-1 (P52699 whole entry, looked up, species assumed): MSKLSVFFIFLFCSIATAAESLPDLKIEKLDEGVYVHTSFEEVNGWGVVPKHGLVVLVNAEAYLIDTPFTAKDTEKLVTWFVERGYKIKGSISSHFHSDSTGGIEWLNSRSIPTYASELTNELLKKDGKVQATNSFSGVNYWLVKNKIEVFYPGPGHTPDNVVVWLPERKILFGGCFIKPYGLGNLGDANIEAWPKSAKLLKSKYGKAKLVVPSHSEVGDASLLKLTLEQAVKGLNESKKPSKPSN

| SMILES | IC50 [1] [nM] | IC50 [2] [nM] | IC50 [3, 10] [nM] | Escherichia coli MITC95 [4] [µM] | Klebsiella pneumoniae MITC95 [5] [µM] | Serratia marcescens MITC95 [6] [µM] | P. aeruginosa expressing IMP-1, efflux + (MB9798) MITC95 [7] [µM] | P. aeruginosa expressing IMP-1, efflux − (MB9799) MITC95 [8] [µM] | Efflux ratio [9, 11] | IC50 ([3]; VIM-1 IC50, fluorescence assay) [nM] | Escherichia coli expressing NDM-1 (CLB30016) MITC95 [4] [µM] | Klebsiella pneumoniae expressing VIM-1 (IHMA599644) MITC95 [5] [µM] | Serratia marcescens expressing IMP-1 (CL5741) MITC95 [6] [µM] | Concentration of metallo-β-lactamase inhibitor which restores susceptibility of efflux + (MB9798) strain to imipenem [7] | Concentration of metallo-β-lactamase inhibitor which restores susceptibility of efflux − (MB9799) strain to imipenem [8] | Efflux ratio [9, 12] |
| --- | --- | --- | --- | --- | --- | --- | --- | --- | --- | --- | --- | --- | --- | --- | --- | --- |
| NCC(=O)NC1CCC[C@@H](c2ccc(S(=O)(=O)N[C@@H]3CCNC3)c(S(N)(=O)=O)c2-c2nn[nH]n2)C1 (stereo partly drawn) [Example 270, 2-Amino-N-((3R)-3-(4-(N—((R)-pyrrolidin-3-yl)sulfamoyl)-3-sulfamoyl-2-(2H-tetrazol-5-yl)phenyl)cyclohexyl)acetamide] | 2.32 | 0.244 | 0.202 | 1.563 | 3.125 | 3.125 | 1.563 | 1.563 | 1.00 | – | – | – | – | – | – | – |
| Nc1nc2c(-c3ccc(S(=O)(=O)N[C@H]4CNC[C@H]4N)c(S(N)(=O)=O)c3-c3nn[nH]n3)cccc2[nH]1 [Example 241] | 0.738 | 0.0536 | – | – | – | – | 0.651 | 0.7813 | 0.83 | 0.182 | 0.5208 | 1.302 | 1.042 | – | – | – |
| NS(=O)(=O)c1c(S(=O)(=O)N[C@@H]2CCNC2)ccc(-c2cccc(Nc3nc(CO)cs3)c2)c1-c1nn[nH]n1 [Example 470, (R)-3′-((4-(hydroxymethyl)thiazol-2-yl)amino)-N4-(pyrrolidin-3-yl)-2-(2H-tetrazol-5-yl)-[1,1′-biphenyl]-3,4-disulfonamide] | 0.134 | 0.0496 | 0.11 | 0.7813 | 3.125 | 1.563 | – | – | – | – | – | – | – | 1.563 | 0.7813 | 2.00 |
| NC1CCC(c2ccc(S(N)(=O)=O)c(S(N)(=O)=O)c2-c2nnn[nH]2)CC1 (stereo not drawn) [Example 165, 4-(4-aminocyclohexyl)-3-(1H-tetrazol-5-yl)benzene-1,2-disulfonamide] | 24.4 | 17.7 | – | – | – | – | 6.25 | 1.563 | 4.00 | 1.17 | 0.3906 | 3.125 | 1.563 | – | – | – |
| NCc1nc2c(-c3ccc(S(=O)(=O)NC[C@H](O)CN)c(S(N)(=O)=O)c3-c3nn[nH]n3)cccc2[nH]1 [Example 299, (R)—N1-(3-amino-2-hydroxypropyl)-4-(2-(aminomethyl)-1H-benzo[d]imidazol-4-yl)-3-(2H-tetrazol-5-yl)benzene-1,2-disulfonamide] | 2.65 | 0.265 | – | 0.7813 | 1.563 | 1.563 | 0.7813 | 0.7813 | 1.00 | 0.154 | – | – | – | – | – | – |
| C[C@@H](N)CNS(=O)(=O)c1ccc(-c2cccc3[nH]c(N)nc23)c(-c2nn[nH]n2)c1S(N)(=O)=O [Example 185, 4-(2-amino-1H-benzo[d]imidazol-4-yl)-N1-((R)-2-aminopropyl)-3-(2H-tetrazol-5-yl)benzene-1,2-disulfonamide] | 0.524 | 0.0476 | 0.19 | – | – | – | 0.3844 | 0.5906 | 0.65 | – | 0.2135 | 1.025 | 0.7688 | – | – | – |
| NCCNc1cc(-c2ccc(S(=O)(=O)N[C@@H]3CCNC3)c(S(N)(=O)=O)c2-c2nn[nH]n2)ccn1 [Example 458, (R)-4-(2-((2-aminoethyl)amino)pyridin-4-yl)-N1-(pyrrolidin-3-yl)-3-(2H-tetrazol-5-yl)benzene-1,2-disulfonamide] | 3.77 | 0.532 | 0.132 | 0.7813 | 1.563 | 1.563 | – | – | – | – | – | – | – | 3.125 | 0.7813 | 4.00 |
| NCC1CCCCN1S(=O)(=O)c1ccc(-c2cccc3sc(N)nc23)c(-c2nnn[nH]2)c1S(N)(=O)=O.O=C(O)C(F)(F)F (stereo not drawn) [Example 110, (1-((4-(2-aminobenzo[d]thiazol-4-yl)-2-sulfamoyl-3-(1H-tetrazol-5-yl)phenyl)sulfonyl)piperidin-2-yl)methanaminium 2,2,2-trifluoroacetate] | 0.346 | 0.0815 | 0.309 | – | – | – | 1.563 | 1.563 | 1.00 | – | 1.563 | 3.125 | 3.125 | – | – | – |
| Nc1nc2c(-c3ccc(S(=O)(=O)NC4CNC[C@H]4N)c(S(N)(=O)=O)c3-c3nn[nH]n3)cccc2[nH]1 (stereo in doubt) [Example 322, 4-(2-Amino-1H-benzo[d]imidazol-4-yl)-N1-((3S,4R)-4-aminopyrrolidin-3-yl)-3-(2H-tetrazol-5-yl)benzene-1,2-disulfonamide] | 0.738 | 0.0536 | – | 0.5208 | 1.302 | 1.042 | 0.651 | 0.7813 | 0.83 | 0.182 | – | – | – | – | – | – |
| Nc1ccc2cccc(-c3ccc(S(=O)(=O)N[C@@H]4CCNC4)c(S(N)(=O)=O)c3-c3nn[nH]n3)c2n1 [Example 286, (R)-4-(2-aminoquinolin-8-yl)-N1-(pyrrolidin-3-yl)-3-(2H-tetrazol-5-yl)benzene-1,2-disulfonamide] | 0.122 | 0.0207 | 0.0877 | 1.953 | 1.172 | 0.7813 | 0.9766 | 0.7813 | 1.25 | – | – | – | – | – | – | – |
